Data taken from publication PMC11397024, “Strategic Fluorination to Achieve a Potent, Selective, Metabolically Stable, and Orally Bioavailable Inhibitor of CSNK2” (Molecules, 2024).

Tests used:
Assay in all cases: NanoBRET K192
Type in all cases: cell-based
CLK1 = target: T1, CLK1 (Homo sapiens, UniProt P49759)
T1 construct: purchased Promega (NanoBRET Target Engagement K192 Kinase Selectivity System)
Procedure, shortened: (§1)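 HEK293 cells were transfected overnight with NanoLuc–kinase fusion vectors, then treated for 2 h at 37 °C with compound (added as 100 μM working solution) plus K10 tracer. BRET was read at 450/610 nm after substrate and extracellular inhibitor, and fractional occupancy was calculated against no-compound controls.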

NEK1 = target: T2, NEK1 (Homo sapiens, UniProt Q96PY6); settings: HEK293
T2 construct: purchased Promega (NanoBRET Target Engagement K192 Kinase Selectivity System)
Procedure, shortened: as §1

MAP3K12 = target: T3, MAP3K12 (Homo sapiens, UniProt Q12852); settings: HEK293
T3 construct: purchased Promega (NanoBRET Target Engagement K192 Kinase Selectivity System)
Procedure, shortened: as §1

MAPK14 = target: T4, MAPK14 (Homo sapiens, UniProt Q16539); settings: HEK293
T4 construct: purchased Promega (NanoBRET Target Engagement K192 Kinase Selectivity System)
Procedure, shortened: as §1

TLK2 = target: T5, TLK2 (Homo sapiens, UniProt Q86UE8); settings: HEK293
T5 construct: purchased Promega (NanoBRET Target Engagement K192 Kinase Selectivity System)
Procedure, shortened: as §1

CDK17 + Y = target: T6, CDK17 + Y (Homo sapiens, UniProt Q00537); settings: HEK293
T6 construct: purchased Promega (NanoBRET Target Engagement K192 Kinase Selectivity System)
Procedure, shortened: as §1

EPHA1 = target: T7, EPHA1 (Homo sapiens, UniProt P21709); settings: HEK293
T7 construct: purchased Promega (NanoBRET Target Engagement K192 Kinase Selectivity System)
Procedure, shortened: as §1

CLK4 = target: T8, CLK4 (Homo sapiens, UniProt Q9HAZ1)
T8 construct: expressed in transfected cells; host or cells: HEK293
Procedure, shortened: as §1

LATS1 = target: T9, LATS1 (Homo sapiens, UniProt O95835); settings: HEK293
T9 construct: purchased Promega (NanoBRET Target Engagement K192 Kinase Selectivity System)
Procedure, shortened: as §1

FLT3 = target: T10, FLT3 (Homo sapiens, UniProt P36888); settings: HEK293
T10 construct: host or cells: HEK293
Procedure, shortened: as §1

CDK10 + L2 = target: T11, CDK10 + L2 (Homo sapiens, UniProt Q15131); settings: HEK293
T11 construct: purchased Promega (NanoBRET Target Engagement K192 Kinase Selectivity System)
Procedure, shortened: as §1

CDK16 + Y = target: T12, CDK16 + Y (Homo sapiens, UniProt Q00536); settings: HEK293
T12 construct: purchased Promega (NanoBRET Target Engagement K192 Kinase Selectivity System)
Procedure, shortened: as §1

CSNK2A2 = target: T13, CSNK2A2 (Homo sapiens, UniProt P19784)
T13 construct: expressed in transfected cells; host or cells: HEK293
Procedure, shortened: as §1

MAP3K4 = target: T14, MAP3K4 (Homo sapiens, UniProt Q9Y6R4); settings: HEK293
T14 construct: purchased Promega (NanoBRET Target Engagement K192 Kinase Selectivity System)
Procedure, shortened: as §1

T13 sequence (P19784 whole entry): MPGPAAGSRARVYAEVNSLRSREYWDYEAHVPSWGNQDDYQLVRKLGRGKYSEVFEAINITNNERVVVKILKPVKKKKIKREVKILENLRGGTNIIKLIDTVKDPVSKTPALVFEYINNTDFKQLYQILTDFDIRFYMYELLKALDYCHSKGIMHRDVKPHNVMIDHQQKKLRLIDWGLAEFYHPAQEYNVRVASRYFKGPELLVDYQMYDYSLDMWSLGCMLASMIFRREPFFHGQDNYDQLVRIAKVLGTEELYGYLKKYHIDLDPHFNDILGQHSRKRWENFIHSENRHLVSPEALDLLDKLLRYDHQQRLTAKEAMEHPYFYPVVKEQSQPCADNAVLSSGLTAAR
T1 sequence (P49759 whole entry): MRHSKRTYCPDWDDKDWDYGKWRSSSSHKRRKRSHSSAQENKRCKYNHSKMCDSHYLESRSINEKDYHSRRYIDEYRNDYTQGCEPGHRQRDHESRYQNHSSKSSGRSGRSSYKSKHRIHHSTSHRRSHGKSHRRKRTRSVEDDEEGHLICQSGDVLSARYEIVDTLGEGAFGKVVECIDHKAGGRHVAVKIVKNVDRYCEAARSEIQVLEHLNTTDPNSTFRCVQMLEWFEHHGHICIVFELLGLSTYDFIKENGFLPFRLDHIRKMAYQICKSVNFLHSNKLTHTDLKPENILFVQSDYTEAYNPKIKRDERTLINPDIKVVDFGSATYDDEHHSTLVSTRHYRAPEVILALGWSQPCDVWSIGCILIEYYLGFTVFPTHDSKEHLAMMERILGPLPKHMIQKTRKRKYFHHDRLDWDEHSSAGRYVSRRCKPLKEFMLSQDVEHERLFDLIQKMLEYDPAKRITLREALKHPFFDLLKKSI
T8 sequence (Q9HAZ1 whole entry): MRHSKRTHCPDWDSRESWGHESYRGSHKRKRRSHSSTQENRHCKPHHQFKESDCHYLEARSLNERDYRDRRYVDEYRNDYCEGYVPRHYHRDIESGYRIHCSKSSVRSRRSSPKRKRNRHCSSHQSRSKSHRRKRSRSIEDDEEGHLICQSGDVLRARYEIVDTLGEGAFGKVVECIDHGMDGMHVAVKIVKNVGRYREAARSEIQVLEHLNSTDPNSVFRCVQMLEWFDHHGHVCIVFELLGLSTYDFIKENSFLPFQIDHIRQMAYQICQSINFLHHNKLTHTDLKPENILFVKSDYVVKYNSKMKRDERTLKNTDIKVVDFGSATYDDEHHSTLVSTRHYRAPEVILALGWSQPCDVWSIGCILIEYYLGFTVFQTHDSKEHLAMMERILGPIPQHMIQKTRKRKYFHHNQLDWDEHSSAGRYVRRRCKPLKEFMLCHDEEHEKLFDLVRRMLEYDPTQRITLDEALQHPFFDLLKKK
T4 sequence (Q16539 whole entry): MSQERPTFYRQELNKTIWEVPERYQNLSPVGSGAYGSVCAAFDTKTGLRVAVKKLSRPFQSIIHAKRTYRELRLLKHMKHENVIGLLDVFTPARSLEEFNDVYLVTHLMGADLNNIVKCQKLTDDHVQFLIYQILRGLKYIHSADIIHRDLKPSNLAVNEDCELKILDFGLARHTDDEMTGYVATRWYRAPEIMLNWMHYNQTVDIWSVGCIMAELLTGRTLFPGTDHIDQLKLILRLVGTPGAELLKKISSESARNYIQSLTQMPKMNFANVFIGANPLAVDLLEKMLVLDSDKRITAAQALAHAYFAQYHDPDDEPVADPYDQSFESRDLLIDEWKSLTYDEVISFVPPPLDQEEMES
T2 sequence (Q96PY6 whole entry): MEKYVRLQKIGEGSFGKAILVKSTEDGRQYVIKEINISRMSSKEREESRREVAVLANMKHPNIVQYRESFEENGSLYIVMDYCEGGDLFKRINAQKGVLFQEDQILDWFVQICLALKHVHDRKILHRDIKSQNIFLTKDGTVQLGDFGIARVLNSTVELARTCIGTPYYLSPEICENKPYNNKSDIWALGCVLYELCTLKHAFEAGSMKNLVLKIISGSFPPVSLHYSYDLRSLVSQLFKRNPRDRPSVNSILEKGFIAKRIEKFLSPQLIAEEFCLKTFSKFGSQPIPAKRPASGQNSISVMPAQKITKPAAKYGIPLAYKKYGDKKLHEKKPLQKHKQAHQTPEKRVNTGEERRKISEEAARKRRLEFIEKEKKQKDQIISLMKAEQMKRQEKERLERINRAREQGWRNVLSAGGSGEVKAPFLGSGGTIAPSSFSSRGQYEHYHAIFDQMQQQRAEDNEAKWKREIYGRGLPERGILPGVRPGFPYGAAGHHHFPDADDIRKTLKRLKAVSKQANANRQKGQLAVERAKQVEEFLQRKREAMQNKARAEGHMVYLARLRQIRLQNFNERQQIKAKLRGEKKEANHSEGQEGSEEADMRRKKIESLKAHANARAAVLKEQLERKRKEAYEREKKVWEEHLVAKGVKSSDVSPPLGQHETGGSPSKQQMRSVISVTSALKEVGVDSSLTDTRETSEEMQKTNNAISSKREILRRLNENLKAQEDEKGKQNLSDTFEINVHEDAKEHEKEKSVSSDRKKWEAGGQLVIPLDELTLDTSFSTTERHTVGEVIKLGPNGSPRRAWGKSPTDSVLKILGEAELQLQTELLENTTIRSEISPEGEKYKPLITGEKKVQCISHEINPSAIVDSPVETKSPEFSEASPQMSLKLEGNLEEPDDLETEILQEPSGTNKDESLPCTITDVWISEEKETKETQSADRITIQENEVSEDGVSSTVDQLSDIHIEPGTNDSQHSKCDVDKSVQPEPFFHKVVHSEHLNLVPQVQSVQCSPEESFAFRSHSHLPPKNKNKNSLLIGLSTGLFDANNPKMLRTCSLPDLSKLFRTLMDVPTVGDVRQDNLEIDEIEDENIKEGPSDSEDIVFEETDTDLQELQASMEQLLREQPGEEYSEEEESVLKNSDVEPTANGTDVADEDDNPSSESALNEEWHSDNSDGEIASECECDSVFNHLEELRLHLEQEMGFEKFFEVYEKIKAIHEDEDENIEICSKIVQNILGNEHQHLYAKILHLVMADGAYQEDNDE
T6 sequence (Q00537 whole entry): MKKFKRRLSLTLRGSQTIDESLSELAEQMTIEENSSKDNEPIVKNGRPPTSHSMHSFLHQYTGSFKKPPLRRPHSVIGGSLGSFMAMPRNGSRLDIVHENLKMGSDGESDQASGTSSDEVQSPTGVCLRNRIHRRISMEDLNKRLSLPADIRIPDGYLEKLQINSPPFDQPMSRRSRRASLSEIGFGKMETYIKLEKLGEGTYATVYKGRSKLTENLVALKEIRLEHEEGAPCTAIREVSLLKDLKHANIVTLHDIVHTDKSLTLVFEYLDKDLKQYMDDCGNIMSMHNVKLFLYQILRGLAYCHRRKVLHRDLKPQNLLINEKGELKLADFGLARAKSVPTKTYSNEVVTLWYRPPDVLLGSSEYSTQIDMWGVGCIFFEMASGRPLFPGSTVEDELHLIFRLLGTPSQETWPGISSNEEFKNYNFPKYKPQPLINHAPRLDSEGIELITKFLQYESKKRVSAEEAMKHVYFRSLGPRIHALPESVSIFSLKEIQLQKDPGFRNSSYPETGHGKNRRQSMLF
T6 sequence (Q8ND76 whole entry partner): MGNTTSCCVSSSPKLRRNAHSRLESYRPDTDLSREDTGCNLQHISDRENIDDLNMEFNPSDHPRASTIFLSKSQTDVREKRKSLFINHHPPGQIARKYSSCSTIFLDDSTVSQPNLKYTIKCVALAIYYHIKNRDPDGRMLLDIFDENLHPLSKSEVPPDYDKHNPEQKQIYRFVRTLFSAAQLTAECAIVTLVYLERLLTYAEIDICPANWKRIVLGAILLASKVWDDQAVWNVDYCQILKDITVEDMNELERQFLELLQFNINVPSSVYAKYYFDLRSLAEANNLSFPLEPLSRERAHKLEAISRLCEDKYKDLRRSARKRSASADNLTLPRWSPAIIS
T7 sequence (P21709 26-976): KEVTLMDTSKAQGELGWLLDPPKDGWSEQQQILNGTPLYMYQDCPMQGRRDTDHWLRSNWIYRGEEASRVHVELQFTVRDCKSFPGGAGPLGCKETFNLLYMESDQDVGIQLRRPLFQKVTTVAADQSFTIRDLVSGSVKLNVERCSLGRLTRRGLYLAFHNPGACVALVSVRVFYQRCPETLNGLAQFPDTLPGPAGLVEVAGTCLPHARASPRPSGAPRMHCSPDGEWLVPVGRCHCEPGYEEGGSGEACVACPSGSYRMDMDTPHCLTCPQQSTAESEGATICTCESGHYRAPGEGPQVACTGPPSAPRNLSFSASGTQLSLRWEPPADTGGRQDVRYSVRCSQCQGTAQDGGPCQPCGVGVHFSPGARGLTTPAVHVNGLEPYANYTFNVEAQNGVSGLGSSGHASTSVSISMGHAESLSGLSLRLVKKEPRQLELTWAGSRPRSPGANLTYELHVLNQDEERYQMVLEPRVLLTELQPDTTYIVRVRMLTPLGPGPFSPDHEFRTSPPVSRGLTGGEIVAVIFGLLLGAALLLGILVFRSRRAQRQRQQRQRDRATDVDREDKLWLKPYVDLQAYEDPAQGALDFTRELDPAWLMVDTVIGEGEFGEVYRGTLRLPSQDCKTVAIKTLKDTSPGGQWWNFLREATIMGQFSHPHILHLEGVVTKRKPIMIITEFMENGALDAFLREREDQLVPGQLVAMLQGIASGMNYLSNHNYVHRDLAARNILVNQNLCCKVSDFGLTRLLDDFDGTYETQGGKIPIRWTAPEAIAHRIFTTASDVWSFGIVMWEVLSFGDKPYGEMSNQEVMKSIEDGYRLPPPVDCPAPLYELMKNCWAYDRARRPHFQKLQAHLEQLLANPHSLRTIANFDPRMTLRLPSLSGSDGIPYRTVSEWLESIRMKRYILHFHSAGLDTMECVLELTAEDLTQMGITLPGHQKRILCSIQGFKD

CCC(=O)Nc1cc(Nc2cc(NC3CC3)n3ncc(C#N)c3n2)c(F)cc1N1CCC[C@H](NC)C1 [Compound 2, (S)-N-(5-((3-cyano-7-(cyclopropylamino)pyrazolo[1,5-a]pyrimidin-5-yl)amino)-4-fluoro-2-(3-(methylamino)piperidin-1-yl)phenyl)propionamide]
% occupancy at 10 μM (CLK1; CLK1, HEK293): 76%
receptor occupancy at 10 µM (CLK1; HEK293, CLK1): 76.2%
receptor occupancy at 10 µM (NEK1): -1.9%
receptor occupancy at 10 µM (MAP3K12): -0.1%
receptor occupancy at 10 µM (MAPK14): 10.4%
receptor occupancy at 10 µM (TLK2): 4.6%
receptor occupancy at 10 µM (CDK17 + Y): 20.2%
receptor occupancy at 10 µM (EPHA1): 7.7%
% occupancy at 10 μM (CLK4; CLK4, HEK293): 74%
receptor occupancy at 10 µM (CLK4; HEK293, CLK4): 73.8%
receptor occupancy at 10 µM (LATS1): -0.4%
receptor occupancy at 10 µM (FLT3): -13.5%
receptor occupancy at 10 µM (CDK10 + L2): 13.6%
receptor occupancy at 10 µM (CDK16 + Y): 25.8%
% occupancy at 10 μM (CSNK2A2; CSNK2A2, HEK293): 97%
receptor occupancy at 10 µM (CSNK2A2; HEK293, CSNK2A2): 96.9%
receptor occupancy at 10 µM (MAP3K4): 4.9%
